Laboratory results published in US20090246276A1, “Pharmaceutical Compositions” (priority 2008, published 2009).
Where a name gives a salt, the structure may show the parent alone.

Tests used:
[1] = In-vitro dissolution, 900 ml medium (0.1N HCl, pH 4.5 acetate buffer, pH 6.8 or pH 7.5 phosphate buffer), USP Apparatus 1, 75 rpm, 37° C.; assay type: physicochemical
Description: The dissolution profile of the above pharmaceutical composition was determined under the dissolution conditions described below in Tables 1A, 1B, and 1C.

[2] = Solubility (37° C.) in 0.1N HCl, pH 4.5, pH 6.8; assay type: physicochemical; parameters: Solubility (37° C.): unit not given here; settings: hydrobromide

CC(NC(C)(C)C)C(=O)c1cccc(Cl)c1 (stereo not shown) [Bupropion HBr, bupropion hydrobromide]
% Released ([1]; Example 1 tablet, 0.1N HCl, 1 hr): 12%
% Released ([1]; Example 1 tablet, 0.1N HCl, 2 hr): 29%
% Released ([1]; Example 1 tablet, 0.1N HCl, 3 hr): 45%
% Released ([1]; Example 1 tablet, 0.1N HCl, 4 hr): 59%
% Released ([1]; Example 1 tablet, 0.1N HCl, 5 hr): 73%
% Released ([1]; Example 1 tablet, 0.1N HCl, 6 hr): 84%
% Released ([1]; Example 1 tablet, 0.1N HCl, 7 hr): 93%
% Released ([1]; Example 1 tablet, 0.1N HCl, 8 hr): 100%
% Released ([1]; Example 1 tablet, 0.1N HCl, 9 hr): 103%
% Released ([1]; Example 1 tablet, 0.1N HCl, 10 hr): 104%
% Released ([1]; Example 1 tablet, 0.1N HCl, 11 hr): 104%
% Released ([1]; Example 1 tablet, 0.1N HCl, 12 hr): 104%
% Released ([1]; Example 1 tablet, 0.1N HCl, 13 hr): 103%
% Released ([1]; Example 1 tablet, 0.1N HCl, 14 hr): 103%
% Released ([1]; Example 1 tablet, pH 4.5 acetate buffer, 1 hr): 12%
% Released ([1]; Example 1 tablet, pH 4.5 acetate buffer, 2 hr): 28%
% Released ([1]; Example 1 tablet, pH 4.5 acetate buffer, 3 hr): 43%
% Released ([1]; Example 1 tablet, pH 4.5 acetate buffer, 4 hr): 57%
% Released ([1]; Example 1 tablet, pH 4.5 acetate buffer, 5 hr): 70%
% Released ([1]; Example 1 tablet, pH 4.5 acetate buffer, 6 hr): 81%
% Released ([1]; Example 1 tablet, pH 4.5 acetate buffer, 7 hr): 91%
% Released ([1]; Example 1 tablet, pH 4.5 acetate buffer, 8 hr): 98%
% Released ([1]; Example 1 tablet, pH 4.5 acetate buffer, 9 hr): 103%
% Released ([1]; Example 1 tablet, pH 4.5 acetate buffer, 10 hr): 105%
% Released ([1]; Example 1 tablet, pH 4.5 acetate buffer, 11 hr): 106%
% Released ([1]; Example 1 tablet, pH 4.5 acetate buffer, 12 hr): 106%
% Released ([1]; Example 1 tablet, pH 4.5 acetate buffer, 13 hr): 106%
% Released ([1]; Example 1 tablet, pH 4.5 acetate buffer, 14 hr): 106%
% Released ([1]; Example 1 tablet, pH 4.5 acetate buffer, 15 hr): 105%
% Released ([1]; Example 1 tablet, pH 4.5 acetate buffer, 16 hr): 105%
% Released ([1]; Example 1 tablet, pH 6.8 phosphate buffer, 1 hr): 12%
% Released ([1]; Example 1 tablet, pH 6.8 phosphate buffer, 2 hr): 27%
% Released ([1]; Example 1 tablet, pH 6.8 phosphate buffer, 3 hr): 42%
% Released ([1]; Example 1 tablet, pH 6.8 phosphate buffer, 4 hr): 56%
% Released ([1]; Example 1 tablet, pH 6.8 phosphate buffer, 5 hr): 69%
% Released ([1]; Example 1 tablet, pH 6.8 phosphate buffer, 6 hr): 80%
% Released ([1]; Example 1 tablet, pH 6.8 phosphate buffer, 7 hr): 88%
% Released ([1]; Example 1 tablet, pH 6.8 phosphate buffer, 8 hr): 95%
% Released ([1]; Example 1 tablet, pH 6.8 phosphate buffer, 9 hr): 98%
% Released ([1]; Example 1 tablet, pH 6.8 phosphate buffer, 10 hr): 100%
% Released ([1]; Example 1 tablet, pH 6.8 phosphate buffer, 11 hr): 100%
% Released ([1]; Example 1 tablet, pH 6.8 phosphate buffer, 12 hr): 100%
% Released ([1]; Example 1 tablet, pH 6.8 phosphate buffer, 13 hr): 101%
% Released ([1]; Example 1 tablet, pH 6.8 phosphate buffer, 14 hr): 100%
% Released ([1]; Example 1 tablet, pH 6.8 phosphate buffer, 15 hr): 99%
% Released ([1]; Example 1 tablet, pH 6.8 phosphate buffer, 16 hr): 99%
% Released ([1]; Example 2 tablet, 0.1N HCl, 1 hr): 12%
% Released ([1]; Example 2 tablet, 0.1N HCl, 2 hr): 29%
% Released ([1]; Example 2 tablet, 0.1N HCl, 4 hr): 61%
% Released ([1]; Example 2 tablet, 0.1N HCl, 8 hr): 100%
% Released ([1]; Example 2 tablet, 0.1N HCl, 12 hr): 103%
% Released ([1]; Example 2 tablet, pH 4.5 acetate buffer, 1 hr): 12%
% Released ([1]; Example 2 tablet, pH 4.5 acetate buffer, 2 hr): 28%
% Released ([1]; Example 2 tablet, pH 4.5 acetate buffer, 4 hr): 57%
% Released ([1]; Example 2 tablet, pH 4.5 acetate buffer, 8 hr): 97%
% Released ([1]; Example 2 tablet, pH 4.5 acetate buffer, 16 hr): 101%
% Released ([1]; Example 2 tablet, pH 6.8 phosphate buffer, 1 hr): 11%
% Released ([1]; Example 2 tablet, pH 6.8 phosphate buffer, 2 hr): 27%
% Released ([1]; Example 2 tablet, pH 6.8 phosphate buffer, 4 hr): 55%
% Released ([1]; Example 2 tablet, pH 6.8 phosphate buffer, 8 hr): 94%
% Released ([1]; Example 2 tablet, pH 6.8 phosphate buffer, 12 hr): 97%
% Released ([1]; Example 2 tablet, pH 6.8 phosphate buffer, 16 hr): 96%
% Released ([1]; Example 3 tablet, 0.1N HCl, 1 hr): 13%
% Released ([1]; Example 3 tablet, 0.1N HCl, 2 hr): 31%
% Released ([1]; Example 3 tablet, 0.1N HCl, 4 hr): 62%
% Released ([1]; Example 3 tablet, 0.1N HCl, 12 hr): 104%
% Released ([1]; Example 3 tablet, 0.1N HCl, 16 hr): 103%
% Released ([1]; Example 3 tablet, pH 4.5 acetate buffer, 1 hr): 12%
% Released ([1]; Example 3 tablet, pH 4.5 acetate buffer, 2 hr): 28%
% Released ([1]; Example 3 tablet, pH 4.5 acetate buffer, 4 hr): 58%
% Released ([1]; Example 3 tablet, pH 4.5 acetate buffer, 8 hr): 99%
% Released ([1]; Example 3 tablet, pH 4.5 acetate buffer, 12 hr): 103%
% Released ([1]; Example 3 tablet, pH 6.8 phosphate buffer, 1 hr): 11%
% Released ([1]; Example 3 tablet, pH 6.8 phosphate buffer, 2 hr): 27%
% Released ([1]; Example 3 tablet, pH 6.8 phosphate buffer, 4 hr): 57%
% Released ([1]; Example 3 tablet, pH 6.8 phosphate buffer, 8 hr): 98%
% Released ([1]; Example 3 tablet, pH 6.8 phosphate buffer, 12 hr): 100%
% Released ([1]; Example 3 tablet, pH 6.8 phosphate buffer, 16 hr): 99%
% Released ([1]; Example 4 tablet, 0.1N HCl, 1 hr): 11%
% Released ([1]; Example 4 tablet, 0.1N HCl, 2 hr): 27%
% Released ([1]; Example 4 tablet, 0.1N HCl, 4 hr): 56%
% Released ([1]; Example 4 tablet, 0.1N HCl, 8 hr): 97%
% Released ([1]; Example 4 tablet, 0.1N HCl, 12 hr): 105%
% Released ([1]; Example 4 tablet, 0.1N HCl, 16 hr): 103%
% Released ([1]; Example 5 tablet, 0.1N HCl, 1 hr): 9%
% Released ([1]; Example 5 tablet, 0.1N HCl, 2 hr): 20%
% Released ([1]; Example 5 tablet, 0.1N HCl, 4 hr): 43%
% Released ([1]; Example 5 tablet, 0.1N HCl, 8 hr): 82%
% Released ([1]; Example 5 tablet, 0.1N HCl, 12 hr): 98%
% Released ([1]; Example 5 tablet, 0.1N HCl, 16 hr): 99%
% Released ([1]; Example 6 tablet, 0.1N HCl, 1 hr): 13%
% Released ([1]; Example 6 tablet, 0.1N HCl, 2 hr): 30%
% Released ([1]; Example 6 tablet, 0.1N HCl, 4 hr): 61%
% Released ([1]; Example 6 tablet, 0.1N HCl, 8 hr): 98%
% Released ([1]; Example 6 tablet, 0.1N HCl, 12 hr): 100%
% Released ([1]; Example 6 tablet, 0.1N HCl, 16 hr): 100%
% Released ([1]; Example 7 tablet, 0.1N HCl, 1 hr): 2%
% Released ([1]; Example 7 tablet, 0.1N HCl, 8 hr): 36%
% Released ([1]; Example 7 tablet, 0.1N HCl, 12 hr): 57%
% Released ([1]; Example 7 tablet, 0.1N HCl, 16 hr): 74%
Solubility (37° C.) ([2]; 0.1N HCl): 190
Solubility (37° C.) ([2]; pH 4.5): 180
Solubility (37° C.) ([2]; pH 6.8): 200
